≈ marks a conversion by molar mass, not a printed value. One block for each compound: values may come before it. Calls of active or inactive are those of the source. The calls are words filed in the database; no cut-off is given here.
Legend:
[1] = test system: Plasmodium falciparum; experiment: Antimalarial activity against CQ-sensitive Plasmodium falciparum NF54 infected in human type O+ erythrocytes assessed as growth inhibition incubated for 48 hrs by LDH assay; type: functional, organism-based; settings: NF54, 48 h
[2] = test system: Hemozoin; experiment: Inhibition of hemozoin formation in CQ-sensitive Plasmodium falciparum D10 infected in human type O+ erythrocytes assessed as hemozoin level at beta-hematin IC50 incubated for 32 hrs by cell fractionation assay (reference value: 89%); type: cell-based; parameters: scale not given: the % may be the effect or the level left; settings: Erythrocyte
[3] = test system: Hemozoin; experiment: Inhibition of beta-hematin in water/NP40/DMSO solution incubated for 5 to 6hrs by detergent-mediated pyridine-ferrichrome method
[4] = test system: Hemozoin; experiment: Inhibition of hemozoin formation in CQ-sensitive Plasmodium falciparum D10 infected in human type O+ erythrocytes assessed as free heme level at beta-hematin IC50 incubated for 32 hrs by cell fractionation assay (reference value: 7%); type: cell-based; parameters: scale not given: the % may be the effect or the level left; settings: Erythrocyte
[5] = test system: Hemozoin; experiment: Inhibition of beta-hematin
[6] = test system: Plasmodium falciparum; experiment: Antimalarial activity against CQ-sensitive Plasmodium falciparum D10 infected in human type O+ erythrocytes assessed as growth inhibition incubated for 48 hrs by LDH assay; type: functional, organism-based; settings: D10, 48 h
[7] = test system: Ferriprotoporphyrin IX; experiment: Binding affinity to Fe(3)PP9 solution assessed as ferriprotoporphyrin 9 complex formation by measuring compound concentration causing pink precipitate formation at <=5500 uM
[8] = test system: Ferriprotoporphyrin IX; experiment: Binding affinity to Fe(3)PP9 solution assessed as ferriprotoporphyrin 9 complex formation by measuring pink precipitate formation at <=5500 uM
[9] = test system: Ferriprotoporphyrin IX
Description: Binding affinity to Fe(3)PP9 in hematin solution at pH 7.5 by titration-based UV-vis spectrophotometrical analysis

[10] = test system: Hemozoin; experiment: Inhibition of hemozoin formation in CQ-sensitive Plasmodium falciparum D10 infected in human type O+ erythrocytes assessed as increase in free heme incubated for 32 hrs by cell fractionation assay; type: cell-based; settings: Erythrocyte
[11] = test system: CHO; experiment: Cytotoxicity against CHO cells by MTT assay; type: cell-based; settings: Cricetulus griseus
[12] = Selectivity index, ratio of IC50 for cytotoxicity against CHO cells to IC50 for CQ-sensitive Plasmodium falciparum NF54 infected in human type O+ erythrocytes; type: toxicity, cell-based; settings: Chinese hamster, read-out: Ratio IC50
[13] = Clearance in human liver microsomes assessed per mg of protein at 0.1 uM by LC-MS/MS analysis; type: ADME, Microsome; settings: read-out: CLH
[14] = Half life in rat liver microsomes at 0.1 uM in presence of NADPH by LC-MS/MS analysis; type: ADME, Microsome
[15] = Extraction ratio in rat liver microsomes assessed per mg of protein at 0.1 uM by LC-MS/MS analysis; type: ADME, Microsome; settings: read-out: ERH
[16] = Kinetic solubility of compound FaSSIF at pH 6.5 after 2 hrs by shake flask assay; type: physicochemical; settings: read-out: Kinetic_solubility
[17] = Extraction ratio in human liver microsomes assessed per mg of protein at 0.1 uM by LC-MS/MS analysis; type: ADME, Microsome; settings: read-out: ERH
[18] = test system: Hemozoin; experiment: Inhibition of hemozoin formation in Plasmodium falciparum trophozoites infected in human erythrocytes assessed as induction of irregularly scattered and shapeless hemozoin clumps inside swollen digestive vacuole at 0.22 ug/ml incubated for 32 hrs by transmission electron microscopic analysis relative to control; type: cell-based; settings: Erythrocyte
[19] = Kinetic solubility of compound at pH 2 after 2 hrs by shake flask assay; type: physicochemical; settings: buffer, read-out: Kinetic_solubility
[20] = Clearance in mouse liver microsomes assessed per mg of protein at 0.1 uM by LC-MS/MS analysis; type: ADME, Microsome; settings: read-out: CLH
[21] = Clearance in rat liver microsomes assessed per mg of protein at 0.1 uM by LC-MS/MS analysis; type: ADME, Microsome; settings: read-out: CLH
[22] = Half life in human liver microsomes at 0.1 uM in presence of NADPH by LC-MS/MS analysis; type: ADME, Microsome
[23] = Half life in mouse liver microsomes at 0.1 uM in presence of NADPH by LC-MS/MS analysis; type: ADME, Microsome
[24] = test system: Hemozoin; experiment: Inhibition of hemozoin formation in CQ-sensitive Plasmodium falciparum D10 infected in human type O+ erythrocytes assessed as decrease in hemozoin formation incubated for 32 hrs by cell fractionation assay; type: cell-based; settings: Erythrocyte
[25] = Kinetic solubility of compound in at pH 6.5 after 2 hrs by shake flask assay; type: physicochemical; settings: buffer, read-out: Kinetic_solubility
[26] = test system: Plasmodium falciparum; experiment: Antimalarial activity against CQ-resistant Plasmodium falciparum K1 infected in human type O+ erythrocytes assessed as growth inhibition incubated for 48 hrs by LDH assay; type: functional, organism-based; settings: K1, 48 h
[27] = Extraction ratio in mouse liver microsomes assessed per mg of protein at 0.1 uM by LC-MS/MS analysis; type: ADME, Microsome; settings: read-out: ERH

- Activity [7]: inactive
- Activity [8]: inactive
- IC50 [3]: > 5500 µM
Structure (SMILES): O=C(Nc1ccncc1)c1ccc([N+](=O)[O-])cc1

- Activity [7]: inactive
- Activity [8]: inactive
- IC50 [3]: > 5500 µM
Structure (SMILES): COc1ccc(C(=O)Nc2ccncc2)cc1

- Activity [7]: inactive
- Activity [8]: inactive
- IC50 [3]: > 5500 µM
Structure (SMILES): Cc1ccc(C(=O)Nc2ccncc2)cc1

- Activity [7]: 700 to 1300 µM
Structure (SMILES): O=C(Nc1ccncc1)c1ccc(Cl)c(Cl)c1

- IC50 [3]: 13.3 µM
Structure (SMILES): CC(C)(C)c1cc(C(=O)Nc2ccncc2)cc(C(=O)Nc2ccncc2)c1
- IC50 [1]: 1.6 µM

- Activity [7]: 1300 to 2300 µM
Structure (SMILES): O=C(Nc1ccncc1)c1cccc(C(F)(F)F)c1

- Activity [7]: inactive
- Activity [8]: inactive
- IC50 [3]: > 5500 µM
Structure (SMILES): O=C(Nc1ccccc1)c1ccc([N+](=O)[O-])cc1

- Activity [7]: 4500 to 5500 µM
Structure (SMILES): O=C(Nc1ccncc1)c1ccc(Cl)cc1

- IC50 [3]: 22 µM
Structure (SMILES): COc1cc(C(=O)Nc2ccncc2)cc(C(=O)Nc2ccncc2)c1
- IC50 [1]: 3 µM

The next lines start with the compound.

Structure (SMILES): CN(C)Cc1ccc(NC(=O)c2cc(C(=O)Nc3ccc(CN(C)C)cc3)cc([N+](=O)[O-])c2)cc1
- IC50 [1]: 1.5 µM
- Activity [2]: 53%
- IC50 [3]: 7.9 µM
- Activity [4]: 41%

Structure (SMILES): O=C(Nc1ccccc1)c1cccc(C(=O)Nc2ccccc2)c1
- IC50 [1]: > 314 µM
- IC50 [3]: > 1000 µM

Structure (SMILES): CCN(CC)Cc1cc(Nc2ccnc3cc(Cl)ccc23)ccc1O [AMODIAQUINE]
- IC50 [5]: 21 µM

Structure (SMILES): N#Cc1cc(C(=O)Nc2ccccc2)cc(C(=O)Nc2ccccc2)c1
- IC50 [6]: 5.2 µM
- IC50 [3]: 4.4 µM

Structure (SMILES): Nc1ccnc2cc(Cl)ccc12
- log K [9]: 4.43

Structure (SMILES): COc1cc(C(=O)Nc2ccccc2)cc(C(=O)Nc2ccccc2)c1
- IC50 [1]: 37 µM
- IC50 [3]: > 1000 µM

Structure (SMILES): CCN(CC)CCCC(C)Nc1ccnc2cc(Cl)ccc12 (stereo unspecified) [CHLOROQUINE]
- IC50 [3]: 31.5 µM

Structure (SMILES): C=C[C@H]1CN2CC[C@H]1C[C@@H]2[C@@H](O)c1ccnc2ccc(OC)cc12
- log K [9]: 5.26

Structure (SMILES): Cc1cc(C(=O)Nc2ccccc2)cc(C(=O)Nc2ccccc2)c1
- IC50 [1]: 146 µM
- IC50 [3]: > 1000 µM

Structure (SMILES): CC(C)(C)c1cc(C(=O)Nc2cccnc2)cc(C(=O)Nc2cccnc2)c1
- inhibition [10]: Dose-dependent effect
- IC50 [11]: 185 µM
- selectivity ratio [12]: 308
- microsomal CLint at 0.1 µM [13]: 14.1 µL/min/mg
- half-life at 0.1 µM [14]: 1.55 h
- hepatic extraction ratio at 0.1 µM [15]: 0.4
- solubility kinetic at 2 h [16]: 154 µM (≈ 57.5 µg/mL)
- hepatic extraction ratio at 0.1 µM [17]: 0.4
- IC50 [1]: 0.6 µM
- IC50 [6]: 0.7 µM
- Activity [18]: Active
- solubility kinetic at 2 h [19]: 197 µM (≈ 73.8 µg/mL)
- IC50 [3]: 6.8 µM
- microsomal CLint at 0.1 µM [20]: 130 µL/min/mg
- microsomal CLint at 0.1 µM [21]: 33.5 µL/min/mg
- half-life at 0.1 µM [22]: 2.37 h
- half-life at 0.1 µM [23]: 0.873 h
- inhibition [24]: Dose-dependent effect
- solubility kinetic at 2 h [25]: 92.7 µM (≈ 34.7 µg/mL)
- IC50 [26]: 1.7 µM
- hepatic extraction ratio at 0.1 µM [27]: 0.6

— ChEMBL document CHEMBL4428041, “Identification and SAR Evaluation of Hemozoin-Inhibiting Benzamides Active against Plasmodium falciparum” (J Med Chem, 2016)
